# Read-outs that look alike come from different tables or passages of the source.
# Columns and labels:
# [1] = test system: aging adult keratinocytes; experiment: scratch assay (cell reconfluence), aging adult keratinocytes; format: cell-based, human; conditions: for Approx. scratch width (arbitrary units) Day 1 test: 0.1 μg/ml (about 0.13 μM) 1
# Experimental: As used herein, “as measured in a scratch assay” refers to measurement of cell reconfluence in keratinocytes or fibroblasts according to the following protocol, and expressed as the value of SC shown in the formula below. Cells are plated in flasks ((5×10^5 cells per flask) and cultured for two days in a humidified chamber at 5% CO2, 37° C. A 2 ml plastic pipette is gently dragged thought the culture to “scratch” the cell surface. The ideal scratch is approximately 2-3 mm wide and 50 mm long (along the long axis of the tissue culture flask). The cells are retreated with medium containing either vehicle (control sample) or test compositions at multiple dilutions. A scratch area is identified, the flask marked, and the appearance of the cells documented photographically over 3-4 days continued culturing of the cells. Amount of cell reconfluence, or closure of the scratch, is determined by measuring width of the scratch over time for compound-treated samples relative to vehicle-treated or other control cells. […] Percentage of closure is calculated by the following formula: SC=100−[100×Wn/W0], where Wn is the width of the scratch on day n and W0 is the width of the scratch on day one (i.e. immediately after scratching). […] Briefly, a scratch, typically about 2-3 mm in width, is created through a mass of plated cells, and the time needed for the cells to become confluent is observed. […] (GRN163 is a telomerase inhibitor oligonucleotide that targets the template region of the telomerase RNA component. Specifically, GRN163 is a 13-mer N3′→P5′ thiophosphoramidate oligonucleotide, described in detail in PCT Pubn. No. WO 01/18015. GRN137227 is a 13-mer N3′→P5′ thiophosphoramidate control oligonucleotide having a mismatched sequence.)
# [2] = test system: young neonatal keratinocytes; experiment: scratch assay (cell reconfluence), young neonatal keratinocytes; format: cell-based, human; conditions: FIG. 5, 2 at 0.01 μM; for SCtest (percentage of closure): SC=100-[100×Wn/W0]
# Experimental: (§1) As used herein, “as measured in a scratch assay” refers to measurement of cell reconfluence in keratinocytes or fibroblasts according to the following protocol, and expressed as the value of SC shown in the formula below. Cells are plated in flasks ((5×10^5 cells per flask) and cultured for two days in a humidified chamber at 5% CO2, 37° C. A 2 ml plastic pipette is gently dragged thought the culture to “scratch” the cell surface. The ideal scratch is approximately 2-3 mm wide and 50 mm long (along the long axis of the tissue culture flask). The cells are retreated with medium containing either vehicle (control sample) or test compositions at multiple dilutions. A scratch area is identified, the flask marked, and the appearance of the cells documented photographically over 3-4 days continued culturing of the cells. Amount of cell reconfluence, or closure of the scratch, is determined by measuring width of the scratch over time for compound-treated samples relative to vehicle-treated or other control cells. […] Percentage of closure is calculated by the following formula: SC=100−[100×Wn/W0], where Wn is the width of the scratch on day n and W0 is the width of the scratch on day one (i.e. immediately after scratching).
# [3] = test system: telomerase activity in HEKneoP cells (neonatal keratinocytes); experiment: TRAP assay of telomerase activity in neonatal keratinocytes; format: cell-based, human; conditions: for MEC (minimum effective concentration producing telomerase activity twice that of DMSO control): HEKneoP cells, 100% greater than DMSO control; for telomerase activity (result in words): neonatal keratinocytes / normal cells
# [4] = test system: aging neonatal keratinocytes; experiment: scratch assay (cell reconfluence), aging neonatal keratinocytes; format: cell-based, human; conditions: FIG. 7; compared with 50 ng/mL PDGF
# Experimental: as §1
# [5] = format: in vitro ADME; conditions: human
# Experimental: J. Franz et al., Abst. J Invest Dermatol 94:525, 1990). […] The receptor solution concentration (representing the inner surface of the skin) was then collected at predetermined intervals over 48 hours, to determine extent and rate of appearance of labeled compound.
compound,measurement,setting,value
"CC(C)(O)[C@@H]1CC[C@](C)([C@H]2[C@@H](O)C[C@@]3(C)[C@@H]4C[C@H](O[C@@H]5O[C@H](CO)[C@@H](O)[C@H](O)[C@H]5O)[C@H]5C(C)(C)[C@@H](O[C@@H]6OC[C@@H](O)[C@H](O)[C@H]6O)CC[C@@]56C[C@@]46CC[C@]23C)O1 [Compound 1, astragaloside IV]",SCtest (percentage of closure),"[1]; FIG. 4, 0.1 μg/ml 1, SC=100-[100×Wn/W0]",100%
same,Approx. scratch width (arbitrary units) Day 1 test,"[1]; FIG. 4, first 'Day 1 test' column",17 arbitrary units
same,Approx. scratch width (arbitrary units) Day 1 test,"[1]; FIG. 4, second 'Day 1 test' column",0 arbitrary units
same,confluence of treated cells,"[1]; FIG. 4, 0.1 μg/ml (about 0.13 μM), versus control cells at day 4",confluent at day 4
same,cell proliferation,"[1]; FIG. 6, 1 alone",promotion of cell proliferation
same,SCtest (percentage of closure),[2],100%
same,Approx. scratch width (arbitrary units) Day 1 test,[2]; first 'Day 1 test' column,18 arbitrary units
same,Approx. scratch width (arbitrary units) Day 1 test,[2]; second 'Day 1 test' column,0 arbitrary units
same,MEC (minimum effective concentration producing telomerase activity twice that of DMSO control),[3],0.01 µM
same,telomerase activity,"[3]; at 1.0 μM, maximum of the concentration series",about 360 % of control
same,telomerase activity (result in words),[3],increase in telomerase activity
same,promotion of cell reconfluence,[4],comparable to that of PDGF
"CC(C)(O)[C@@H]1CC[C@](C)([C@H]2[C@@H](O)C[C@@]3(C)[C@@H]4C[C@H](O)[C@H]5C(C)(C)[C@@H](O)CC[C@@]56C[C@@]46CC[C@]23C)O1 [Compound 2, cycloastragenol]",total delivery over 48 hours,[5]; 0.01 wt %,~66 ng
same,total delivery over 48 hours,[5]; 0.25 wt %,~600 ng
same,SCtest (percentage of closure),[2],90.5%
same,Approx. scratch width (arbitrary units) Day 1 test,[2]; first 'Day 1 test' column,21 arbitrary units
same,Approx. scratch width (arbitrary units) Day 1 test,[2]; second 'Day 1 test' column,2 arbitrary units
same,MEC (minimum effective concentration producing telomerase activity twice that of DMSO control),[3],0.01 µM
same,telomerase activity,"[3]; at 0.1 μM, maximum of the concentration series",about 300 % of control
same,telomerase activity (result in words),[3],increase of telomerase activity
"CC(C)(O)[C@@H]1CC[C@](C)([C@H]2[C@@H](O)C[C@@]3(C)[C@@H]4C[C@H](O)[C@H]5C(C)(C)[C@@H](O)CC[C@]5(C)C4=CC[C@]23C)O1 [Compound 3, astragenol]",MEC (minimum effective concentration producing telomerase activity twice that of DMSO control),[3],0.03 µM
"CC(C)(O)[C@@H]1CC[C@](C)([C@H]2[C@@H](O)C[C@@]3(C)[C@@H]4CC=C5C(=CC[C@H](O)C5(C)C)[C@]4(C)CC[C@]23C)O1 [Compound 5, 20R,24S-epoxy-3β,16β,25-trihydroxy-9β-methyl-19-norlanost-1,5-diene]",MEC (minimum effective concentration producing telomerase activity twice that of DMSO control),[3],0.10 µM
"CC(C)(O)[C@@H]1CC[C@](C)([C@H]2[C@@H](O)C[C@@]3(C)[C@@H]4C[C@H](OC5O[C@H](CO)[C@@H](O)[C@H](O)[C@H]5O)[C@H]5C(C)(C)[C@@H](O)CC[C@@]56C[C@@]46CC[C@]23C)O1 (stereo partly drawn) [Compound 6, cycloastragenol 6-β-D-glucopyranoside]",MEC (minimum effective concentration producing telomerase activity twice that of DMSO control),[3],3.2 µM
"CC(C)(O)[C@@H]1CC[C@](C)([C@H]2[C@@H](O)C[C@@]3(C)[C@@H]4C[C@H](O)[C@H]5C(C)(C)[C@@H](OC6OC[C@@H](O)[C@H](O)[C@H]6O)CC[C@@]56C[C@@]46CC[C@]23C)O1 (stereo partly drawn) [Compound 7, cycloastragenol 3-β-D-xylopyranoside]",MEC (minimum effective concentration producing telomerase activity twice that of DMSO control),[3],3.2 µM
"CC(C)=CCC[C@](C)(O)[C@H]1CC[C@]2(C)[C@@H]1[C@H](O)C[C@@H]1[C@@]3(C)CC[C@H](O)C(C)(C)[C@@H]3[C@@H](O[C@@H]3O[C@H](CO)[C@@H](O)[C@H](O)[C@H]3O)C[C@]12C [Compound 8, ginsenoside RH1]",MEC (minimum effective concentration producing telomerase activity twice that of DMSO control),[3],10 µM
"EGF: EGF (epidermal growth factor), used at 10 nM as comparison in the TRAP assay [reference compound]",telomerase activity,[3]; cells treated with 10 nM EGF,about 200%
astragaloside IV 16-one [Compound 4],MEC (minimum effective concentration producing telomerase activity twice that of DMSO control),[3],0.03 µM

# — patent publication US9248088B2, “Compositions and methods for skin conditioning” (TELOMERASE ACTIVATION SCIENCES, INC., priority 2003, dated 2016)
